According to patent publication US20070191435A1, “HYDROCHLORIDE SALT OF 5-[4-[2-(N-METHYL-N-(2-PYRIDYL)AMINO)ETHOXY]BENZYL]THIAZOLIDINE-2,4-DIONE” (SmithKline Beecham p.l.c., priority 2000, published 2007):

What was measured:
[1] = Solubility in water, visual, confirmed by HPLC assay of a saturated solution; type: physicochemical; settings: thermodynamic from solid
Description: The visual solubility was confirmed by an HPLC assay of a saturated solution.

[2] = Solid state stability of the drug substance, assayed by HPLC; type: physicochemical; settings: 1 month
Description: The solid state stability of the drug substance was determined by storing approximately 1.0 g of the material in a glass bottle at a) 40° C./75% Relative Humidity (RH), open exposure, for 1 month and b) at 50° C., closed, for 1 month. […] Solubility of the Hydrochloride

CN(CCOc1ccc(CC2SC(=O)NC2=O)cc1)c1ccccn1.Cl (centres unmarked) [Hydrochloride, 5-[4-[2-(N-methyl-N-(2-pyridyl)amino)ethoxy]benzyl]thiazolidine-2,4-dione hydrochloride]
solubility [1]: 25 mg/mL | HPLC assay for final content ([2]; 40° C./75% RH, open exposure): 100 % initial | degradation products (HPLC) ([2]; 40° C./75% RH, open exposure): No significant degradation observed | HPLC assay for final content ([2]; 50° C., closed): 101 % initial | degradation products (HPLC) ([2]; 50° C., closed): No significant degradation observed
